Target: T1, Rat Hepatic Microsomal HMG-CoA reductase (HMGR) (Rattus norvegicus, UniProt P51639)
T1 construct: Microsomes prepared from liver of rats administered with cholestyramine; from tissue
T1 sequence (P51639 1-887): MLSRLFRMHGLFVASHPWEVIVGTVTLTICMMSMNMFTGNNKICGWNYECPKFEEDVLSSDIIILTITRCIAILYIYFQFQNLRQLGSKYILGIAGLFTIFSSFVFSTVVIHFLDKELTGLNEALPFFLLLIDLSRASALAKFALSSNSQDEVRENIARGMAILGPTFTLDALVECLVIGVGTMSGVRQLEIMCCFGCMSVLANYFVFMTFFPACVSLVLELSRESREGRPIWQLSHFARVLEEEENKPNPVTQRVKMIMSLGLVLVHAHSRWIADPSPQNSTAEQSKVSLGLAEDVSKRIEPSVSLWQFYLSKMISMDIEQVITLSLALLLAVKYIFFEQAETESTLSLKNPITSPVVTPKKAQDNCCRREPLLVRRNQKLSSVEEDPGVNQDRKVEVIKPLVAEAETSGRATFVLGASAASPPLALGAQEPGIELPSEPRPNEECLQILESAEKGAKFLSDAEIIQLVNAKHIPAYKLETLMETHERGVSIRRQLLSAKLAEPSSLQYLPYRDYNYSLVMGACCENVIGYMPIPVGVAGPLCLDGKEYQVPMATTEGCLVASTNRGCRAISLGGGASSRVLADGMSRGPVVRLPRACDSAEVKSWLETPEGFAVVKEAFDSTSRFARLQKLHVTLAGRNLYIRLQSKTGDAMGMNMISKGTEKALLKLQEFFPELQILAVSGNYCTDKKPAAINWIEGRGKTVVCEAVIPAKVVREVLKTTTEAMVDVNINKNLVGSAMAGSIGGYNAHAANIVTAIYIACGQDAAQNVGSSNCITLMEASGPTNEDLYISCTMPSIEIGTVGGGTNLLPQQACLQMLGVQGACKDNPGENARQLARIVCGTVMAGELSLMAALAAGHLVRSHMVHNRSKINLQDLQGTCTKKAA
Experiment: Inhibitory activity against rat hepatic microsomal HMG-CoA reductase (14C-HMG-CoA substrate, 14C-mevalonolactone measured by TLC and scintillation counting)
Type: biochemical
Settings: microsomes from liver of rats administered with cholestyramine, incubated for 10 minutes; for inhibition at 1 µM: Concentration of test compound 10^-6 M
Description: Experiment: Inhibitory activity against Rat Hepatic Microsomal HMG-CoA reductase (HMGR)
HMGR activities of microsomes are measured in accordance with the method of N. L. Young et al., Methods in Enzymology, 71, 498 (1981).
Microsomes prepared from liver of rats administered with cholestyramine were mixed with a solution of the compounds to be tested in dimethyl sulfoxide and ¹⁴C-HMG-CoA (substrate). After the mixture was incubated for 10 minutes, the reaction was quenched with 6N hydrochloric acid and the mixture was allowed to stand at 37°C for 15 minutes, followed by centrifugation. The supernatant was spotted on thin layer chromatography (TLC; Kieselgel 60F254 manufactured by Merck) and developed with toluene/acetone (1:1). The spot of ¹⁴C-mevalonolactone was collected and the amount of isotope was measured with a scintillation counter (Type 4640 TRI-CARB. manufactured by Paccard) to calculate an amount of the formed mevalonolactone. By comparing amounts of the formed mevalonolactone in the group treated with test compounds and the control group (without test compounds), HMGR activity inhibition rates of the test compounds were calculated.

Structure (SMILES) | inhibition at 100 µM (Concentration of test compound 10^-4 M) | inhibition at 1 µM
O=C(O)C[C@H](O)C[C@H](O)/C=C/C(=C(c1ccc(F)cc1)c1ccc(F)cc1)c1ccccc1 (racemic) [(±)-(3R*,5S*) [r3]] | 96% | 79%
O=C(O)C[C@H](O)C[C@H](O)/C=C/C(=C(c1ccc(F)cc1)c1ccc(F)cc1)c1ccco1 (single isomer, unassigned) [(-)-(3R*,5S*)] |  | 93%
